# Measurements taken from patent US20170224833A1, “SELF-ASSEMBLING MOLECULES THAT ACCUMULATE IN ACIDIC TUMOR MICROENVIRONMENTS” (OHIO STATE INNOVATION FOUNDATION, priority 2014, published 2017).
# *: point of attachment. Palmitoyl = CCCCCCCCCCCCCCCC(=O)*
# Assay: MRI r1 relaxivity measurement, 1.5 Tesla
# Type: physicochemical
# Conditions: 500 μM, 1.5 T
# Method: An MR relaxometry phantom was built by fixing 5 mm NMR sample tubes containing PA samples at a concentration of 500 μM and pH values 4 and 10 in a 600 ml beaker filled with deionized water. The samples also contained 150 mM NaCl and 2.2 mM CaCl2. The phantom was scanned on a 1.5 Tesla Signa Excite MRI scanner using an 8-channel phased-array head coil (GE Healthcare, Milwaukee, Wis., USA). R relaxometry data were acquired using an Inversion Recovery Fast Spin-Echo (IR-FSE) sequence with the following parameters: inversion time TI=50/100/200/400/600/800/1200/1600/3200 ms; repetition time TR=8000 ms; echo time TE=11 ms; echo train length=10; 90° flip angle; 100×100 mm^2 field-of-view (FOV); 0.5 mm in-plane resolution; 2 mm slice thickness; single coronal slice placed at the center of the phantom. Sample longitudinal relaxation rates (R1) were calculated by fitting the MR signal intensities observed at different TIs (S(TI)) to a three parameter model [Lu et al., MRM 2004]:
# S(TI)=|S0×(1−C×exp(−TI×R1))|
# Where S0 is the equilibrium signal, C is a constant accounting for imperfect inversion of magnetization. The r1 relaxivity was calculated as the slope in the linear relationship between sample concentrations and their R1 relaxation rates.
substance,measurement,setting,value
Palmitoyl-IAAAEEEEK(DO3A:Gd)-NH2 (Palmitoyl-IAAAEEEEK(DO3A)-NH2; also: DO3A chelates Gd) [PA5],relaxivity of water protons,pH 4 (nanofibers),8.3 mM⁻¹ s⁻¹
same,relaxivity of water protons,pH 10 (spherical micelles),6.6 mM⁻¹ s⁻¹
